Test results: publication PMC8166143, “Ecotoxicity evaluation of polymeric nanoparticles loaded with ascorbic acid for fish nutrition in aquaculture” (Journal of Nanobiotechnology, 2021)
In brackets after ≈: the same amount, converted by molar mass.

Key:
AChE = conditions: ref Sandahl et al. [76], cited from earlier work
[1] = AA oxidation under aquarium conditions; type: physicochemical
Experimental: (§1) The oxidation profiles of AA, alone and encapsulated in the CS and PCL nanoparticles, were evaluated using the method described previously. A stock solution of AA was prepared by dissolving 50 mg of AA in 250 mL of stabilizing solution (EDTA). The absorbance of this solution was measured at 265 nm, with the stabilizing solution used as the background. Separately, a solution of Oxone (potassium peroxymonosulfate, Sigma-Aldrich) was prepared in 50 mL of EDTA solution. An aliquot of AA solution was mixed with 3 mL of Oxone solution and completed to 25 mL with the stabilizing solution, resulting in a solution with 10 μg mL^−1 of AA. The same procedure was performed for the CS and PCL nanoparticles loaded with AA. The absorbance value of the solution containing only AA, minus the absorbance value of the solution containing AA and Oxone, was proportional to the concentration of AA present in the sample. For oxidation studies under aquarium conditions, 9 aquaria were used (3 per treatment), each containing a final volume of 3 L and fitted with an aeration pump. The parameters set for the experiment were 28 °C, pH 7 ± 0.5, and 25 µg mL^−1 of AA (the concentration used in the in vivo assays). At predetermined times, 1 mL aliquots were collected, and the amount of AA was determined using HPLC. The results were presented as % viable ascorbic acid. The assays were performed in triplicate (n = 3).

[2] = AA release kinetics, two-compartment system, and mathematical modeling; type: physicochemical
Experimental: The profiles of AA release from the nanoparticles were evaluated using a two-compartment system composed of a donor compartment (2 mL) and an acceptor compartment (50 mL), separated by a cellulose membrane (1000 Da exclusion pore size) under slight stirring and room temperature (25 °C). Aliquots (1 mL) were periodically collected from the acceptor compartment, with the volume being replaced with 1 mL of water to maintain a constant volume. The aliquots removed were analyzed by HPLC and the results were converted to percentages of released AA. The assays were performed in triplicate. Zero order, first order, Higuchi and Korsmeyer-Peppas mathematical models were used to elucidate the release mechanism of AA from all formulations.

[3] = AA oxidation kinetics induced by peroxymonosulfate (Oxone); type: physicochemical
Experimental: as §1

[4] = system: zebrafish embryos and larvae; conditions: after 96 h of exposure
Experimental: The embryos were kept individually in 24-well polystyrene plates (n = 24 organisms per group), with addition of 2 mL of test solution to each well. The temperature was maintained at 26 ± 0.2 °C and a light/dark photoperiod of 14/10 h was provided. Determinations were made of mortality and morphological abnormalities including changes in heartbeat, presence of coagulation, undetected tail, change in head formation, disintegration of larvae, pericardial edema, yolk sac edema and opacity, and defective development of the somite.
The total length of the larvae (mm) was measured from the mouth to the terminal portion of the tail.
Mortality was defined as the presence of coagulation, lack of heartbeat, failure of somite development, and undeveloped tail. The hatching rate was calculated considering the successful hatching of embryos in relation to the total number of embryos in each replicate. The observed malformations included pericardial edema, tail deformity, yolk sac edema, and spinal curvature.
The malformation rate was determined considering the percentage of malformed larvae in relation to the total number of larvae that hatched during the test. […] The equipment was previously calibrated using a millimeter scale.

zebrafish larvae = assay: Zebrafish motor activity (distance traveled, speed); type: in vivo, Danio rerio
Experimental: After 96 h, the larvae were distributed individually in 96-well plates, with each well containing 100 µL of embryo medium and 100 µL of test solution (total volume = 200 µL). The behaviors of the larvae were recorded individually for 10 min (at 28 °C) and were analyzed using EthovisionXT software (Noldus). The parameters considered were speed (mm/s) and distance covered.

[5] = Toxicity evaluation using zebrafish (mortality, LC values, hatching, morphology; 3.12-400 mg/L, 96 h); conditions: zebrafish (Danio rerio), in vivo
Experimental: (§2) Preliminary tests were performed to determine the lethal concentration (LC50, mg/L). For this experiment, 24-well polystyrene plates were used, with the embryos being individually exposed to 2 mL of the test solution (n = 24 per group). […] The positive control was 4 mg L^−1 of 3,5-dichloroaniline (≥ 98%, Sigma-Aldrich). The plates were examined every 24 h to determine the mortality of the embryos and larvae, using a stereomicroscope (Model SMZ 2 LED, Optika) and Optika View v. 7.1.1.5 software. […] 1.17.04 software.

[6] = system: zebrafish embryos and larvae; assay: as above
Experimental: as §2

SMILES: CCOP(=S)(OCC)Oc1nc(Cl)c(Cl)cc1Cl [chlorpyrifos]
- relative AChE activity compared to the control (AChE; at 0.6 µg L^−1): 77.2%
- exposure concentration with significant decreases in swimming activity (AChE): 0.6 µg/L

SMILES: O=C1O[C@H]([C@@H](O)CO)C(O)=C1O [AA, L-ascorbic acid]
- time to total degradation of AA [1]: 120 min
- AA degraded ([1]; first 60 min): almost half
- AA released (acceptor compartment) ([2]; after 60 min, 25 °C, water): 39 ± 0.2%
- AA released (acceptor compartment) ([2]; after 210 min): 51 ± 0.9%
- AA concentration after addition of the oxidizing agent ([3]; first minute, initial 10 μg mL^−1 AA, peroxymonosulfate): 2.5 ± 0.01 µg/mL
- time to total degradation of AA ([3]; peroxymonosulfate oxidizing agent): 7 min
- hatching rate ([4]; LC50 concentration): 16.6%
- malformations of embryos and larvae ([4]; LC50 dose): edema and opacity of the yolk sac, edema of the pericardium, malformation of the tail, and bent spine
- distance traveled, dose dependence (zebrafish larvae; LC10-LC50, 96 h exposure): dose-dependent increase in the distance traveled
- swimming speed, dose dependence (zebrafish larvae; LC10-LC50, 96 h exposure): dose-dependent increases in speed
- distance traveled compared to the control group (zebrafish larvae; LC50, 96 h exposure): significant (p < 0.05) increase in the distance traveled
- distance traveled compared to the control group (zebrafish larvae; up to the LC30 concentration): shorter
- LC50 at 96 h [5]: 331 µg/mL (≈ 1880 µM)
- mortality ([6]; 400 mg/L, 96 h): 75%
- malformations compared to NPs_CS_AA at the same concentrations ([6]; 25 and 50 mg L^−1): higher numbers of malformations
- hatching rate compared to the control group ([6]; 100 and 200 mg L^−1, after 96 h): more pronounced decreases in hatching
- LC10 ([6]; 96 h, probit analysis): 53.0 µg/mL (≈ 301 µM)
- LC20 ([6]; 96 h, probit analysis): 148.3 µg/mL (≈ 842 µM)
- LC30 ([6]; 96 h, probit analysis): 217.1 µg/mL (≈ 1230 µM)
- LC40 ([6]; 96 h, probit analysis): 275.8 µg/mL (≈ 1570 µM)
- hatching rate compared to the control group ([6]; after 48 h of exposure): lower
- mortality ([6]; all concentrations tested except 400 mg L^−1, 96 h): below 30%
